Results on 19 compounds are retold here after patent US5180735A, “Cyclohexanol derivatives, production and use thereof” (Takeda Chemical Industries, Ltd., priority 1989, dated 1993).

The first experiment relates to M5076 cells. The experiment is described as follows: Antitumor test in mice inoculated subcutaneously with M5076 cells (tumor size, T/C). The class given is in vivo, C57BL/6 mice. The following applies: 20 mg/kg, subcutaneous, 10 times in total; tumor size after 13 days. The procedure:
C57BL/6 mice (a group consisting of 6 mice) were inoculated subcutaneously at the dorsolateral area with 2×10^6 M5076 cells, and then a test compound dissolved in a 5% gum arabic physiological saline solution was subcutaneously administered 10 times in total, i.e. 1st, 2nd, 4th, 5th, 6th, 7th, 8th, 9th, 11th and 12th day after the inoculation. After 13 days, the major axis (a) and the minor axis (b) of the tumor tissue were measured to determine the tumor size by the calculation formula of a×b^2 ×1/2. The ratio of the tumor size thus calculated to the tumor size of animals in the control group was shown by T/C (%).
Turning to “4-(N'-chloroacetylureido)-2-(1,2-epoxy-1,5-dimethyl-4-hexenyl)-1-(1,3-dihydrobenzo[c]thiophen-2-ylio)methyl-3-methoxycyclohexanol chloride [Example 100]”, the “T/C (%) (ratio of tumor size to control group)” value is given as 22%.
Consider `CO[C@@H]1[C@H](OC(=O)NC(=O)CCl)CC[C@](O)(C[S+](C)Cc2cccc(Br)c2)[C@H]1[C@@]1(C)O[C@@H]1CC=C(C)C` (single isomer, unassigned) [Example 65A, 1-(3-bromobenzyl)methylsulfoniomethyl-4-(N-chloroacetylcarbamoyloxy)-2-(1,2-epoxy-1,5-dimethyl-4-hexenyl)-3-methoxycyclohexanol bromide], for which the “T/C (%) (ratio of tumor size to control group)” value was found to be 9%.
The same measure, in the same setting: for `CO[C@@H]1[C@H](OC(=O)NC(=O)CCl)CC[C@](O)(C[S+](C)Cc2cccc(Br)c2)[C@H]1[C@@]1(C)O[C@@H]1CC=C(C)C` (single isomer, unassigned) [Example 65B, 1-(3-bromobenzyl)methylsulfoniomethyl-4-(N-chloroacetylcarbamoyloxy)-2-(1,2-epoxy-1,5-dimethyl-4-hexenyl)-3-methoxycyclohexanol bromide] the value was 37%.

Staying with this experiment, now noted: Mus musculus, M5076, sc, 312 h, 20 mg/kg, subcutaneous, 10 times in total; tumor size after 13 days; read-out: T/C (%) (ratio of tumor size to control group).
As to `CO[C@@H]1[C@H](OC(=O)NC(=O)CCl)CC[C@](O)(C[S+](C)Cc2ccc(Br)cc2)[C@H]1[C@@]1(C)O[C@@H]1CC=C(C)C` (stereo partly drawn) [Example 60, 1-(4-Bromobenzyl)methylsulfoniomethyl-4-(N-chloroacetylcarbamoyloxy)-2-(1,2-epoxy-1,5-dimethyl-4-hexenyl)-3-methoxycyclohexanol bromide], the response vs control in vivo at 20 mg/kg worked out at 21%.
The same measure, in the same setting: the figure for `CO[C@@H]1[C@H](OC(=O)NC(=O)CCl)CC[C@](O)(C[S+](C)Cc2ccc(Cl)cc2)[C@H]1[C@@]1(C)O[C@@H]1CC=C(C)C` (stereo partly drawn) [Example 61, 4-(N-Chloroacetylcarbamoyloxy)-1-(4-chlorobenzyl)methylsulfoniomethyl-2-(1,2-epoxy-1,5-dimethyl-4-hexenyl)-3-methoxycyclohexanol bromide] is 27%; for `CO[C@@H]1[C@H](OC(=O)NC(=O)CCl)CC[C@](O)(C[S+](C)Cc2ccc(F)cc2)[C@H]1[C@@]1(C)O[C@@H]1CC=C(C)C` (stereo partly drawn) [Example 62, 4-(N-Chloroacetylcarbamoyloxy)-2-(1,2-epoxy-1,5-dimethyl-4-hexenyl)-1-(4-fluorobenzyl)methylsulfoniomethyl-3-methoxycyclohexanol bromide] it is 29%.
With `CO[C@@H]1[C@H](OC(=O)NC(=O)CCl)CC[C@](O)(C[S+](C)Cc2cccc(Br)c2)[C@H]1[C@@]1(C)O[C@@H]1CC=C(C)C` (stereo partly drawn) [Example 64, 1-(3-Bromobenzyl)methylsulfoniomethyl-4-(N-chloroacetylcarbamoyloxy)-2-(1,2-epoxy-1,5-dimethyl-4-hexenyl)-3-methoxycyclohexanol bromide], the response vs control in vivo at 20 mg/kg stood at 24%.
Same read-out and setting: the figure for `CO[C@@H]1[C@H](OC(=O)NC(=O)CCl)CC[C@](O)(C[S+](C)Cc2ccccc2)[C@H]1[C@@]1(C)O[C@@H]1CC=C(C)C` (stereo partly drawn) [Example 76, 1-Benzylmethylsulfoniomethyl-4-chloroacetylcarbamoyloxy-2-(1,2-epoxy-1,5-dimethyl-4-hexenyl)-3-methoxycyclohexanol hydrogen L-tartrate] is 29%; for `CO[C@@H]1[C@H](OC(=O)NC(=O)CCl)CC[C@](O)(C[S+]2Cc3ccccc3C2)[C@H]1[C@@]1(C)O[C@@H]1CC=C(C)C` [Example 82, 4-(N-Chloroacetylcarbamoyloxy)-2-(1,2-epoxy-1,5-dimethyl-4-hexenyl)-1-(1,3-dihydrobenzo[c]thiophen-2-ylio)methyl-3-methoxycyclohexanol chloride] it is 9%; for `CO[C@@H]1[C@H](OC(=O)NC(=O)CCl)CC[C@](O)(C[S+]2CC3CC=CCC3C2)[C@H]1[C@@]1(C)O[C@@H]1CC=C(C)C` (stereo partly drawn) [Example 104, 4-(N-chloroacetylcarbamoyloxy)-2-(1,2-epoxy-1,5-dimethyl-4-hexenyl)-1-(1,3,3a,4,7,7ahexahydrobenzo[c]thiophen-2-ylio)methyl-3-methoxycyclohexanol chloride] it is 16%.

The same experiment, now with this note: Mus musculus, M5076, sc, 312 h, 30 mg/kg, subcutaneous, 10 times in total; tumor size after 13 days; read-out: T/C (%) (ratio of tumor size to control group).
As for `C=CC(=O)NC(=O)O[C@@H]1CC[C@](O)(CCl)[C@@H]([C@@]2(C)O[C@@H]2CC=C(C)C)[C@@H]1OC` [Example 2, 4-O-(Acryloylcarbamoyl)-2-(1,2-epoxy-1,5-dimethyl-4-hexenyl)-3-methoxy-1-chloromethyl-1,4-cyclohexanediol], the response vs control in vivo at 30 mg/kg was found to be 20%.
On the same count and under the same terms, the figure for `CO[C@@H]1[C@H](OC(=O)NC(=O)CCl)CC[C@](O)(C[S+](C)C)[C@H]1[C@@]1(C)O[C@@H]1CC=C(C)C` [Example 13, 4-O-(Chloroacetylcarbamoyl)-2-(1,2-epoxy-1,5-dimethyl-4-hexenyl)-3-methoxy-1-dimethylsulfoniomethyl-1,4-cyclohexanediol iodide] is 36%; for `CO[C@@H]1[C@H](OC(=O)NC(=O)CCl)CC[C@](O)(C[S+](C)Cc2ccccc2)[C@H]1[C@@]1(C)O[C@@H]1CC=C(C)C` (stereo partly drawn) [Example 16, 4-O-(N-chloroacetylcarbamoyl)-2-(1,2-epoxy-1,5-dimethyl-4-hexenyl)-3-methoxy-1-benzylmethylsulfoniomethyl-1,4-cyclohexanediol bromide] it is 20%; for `C#CC[S+](C)C[C@@]1(O)CC[C@@H](OC(=O)NC(=O)CCl)[C@@H](OC)[C@@H]1[C@@]1(C)O[C@@H]1CC=C(C)C` (stereo partly drawn) [Example 17, 4-O-(Chloroacetylcarbamoyl)-2-(1,2-epoxy-1,5-dimethyl-4-hexenyl)-3-methoxy-1-(2-propinyl)-methylsulfoniomethyl-1,4-cyclohexanediol bromide] it is 21%.

In another experiment the test system is angiogenesis due to bFGF (rat cornea). The experiment is described as follows: Angiogenesis inhibitory action by the rat cornea micropocket method. The class given is in vivo, male Sprague-Dawley rats. The following applies: sustained release pellet, 20 μg sample, next to bFGF pellet (250 ng) in cornea; observed after 10 days. An excerpt: Angiogenesis inhibitory action by the rat cornea micropocket method
Essentially the same method of Gimbrone et al. [J. National Cancer Institute 52:413-419 (1974)] was follows.
Specifically, adult male Sprague-Dawley rats (11 to 16 week old) were anesthetized with nembtal and locally anesthetized by instillation of xylocaine eyedrops onto the eyeball. The cornea was incised to a length of about 2 mm at about 2 mm inside from the corneal circumference by means of an injection needle, and a basic fibroblast growth factor (bFGF, bovine brain-derived, purified product, R & D Inc.) and a sustained release pellet containing the test sample were inserted side by side into the incision so that the bFGF pellet was located on the central side in the cornea. In the control group, the bFGF pellet and a sample-free pellet were inserted into the cornea. After 10 days, the cornea was observed under a stereoscopic microscope.
The sustained release pellets were prepared in the following manner. An ethylene-vinyl acetate copolymer (Takeda Chemical Industries, Ltd.) was dissolved in dichloromethane to a concentration of 8%. A 3 μl portion of the solution was air-dried on a glass dish, an aqueous solution of bFGF (250 ng) was then placed thereon and air-dried and, finally 3 μl of the above-mentioned ethylene-vinyl acetate copolymer solution was placed further thereon and air-dried to give a sandwich sheet. This sandwich sheet was made round into a bFGF pellet. The test sample pellets were prepared by dissolving each sample in ethanol to a concentration of 20 μg/2 μl, mixing the solution with 6 μl of an ethylene-vinyl acetate copolymer solution, air-drying the mixed solution on a glass dish and making the thus-obtained sheet round.
In the above Table 1, the number of rats subjected to the test was shown by denominator, and the number of rats whose […] due to bFGF was retarded or weakened by administration of the test sample was shown by numerator. In the judgment, +means an inhibition rate of 70% or more, and ±means that of less than 70% but exceeding 40%.
Take `CO[C@@H]1[C@H](OC(=O)NC(=O)C(C)CCl)CC[C@](O)(CCl)[C@H]1[C@@]1(C)O[C@@H]1CC=C(C)C` (stereo partly drawn) [Example 4, 4-O-(3-Chloro-2-methyl-propionylcarbamoyl)-2-(1,2-epoxy-1,5-dimethyl-4-hexenyl)-3-methoxy-1-chloromethyl-1,4-cyclohexanediol]: the “Inhibitory Rate (rats whose angiogenesis due to bFGF was retarded or weakened / rats subjected to the test)” value was 3/5 and the “Judgment (Angiogenesis Inhibitory Activity)” value is “± (that of less than 70% but exceeding 40%)”.
The like results for `CO[C@@H]1[C@H](O)CC[C@](O)(CSC)[C@H]1[C@@]1(C)O[C@@H]1CC=C(C)C` [Example 10, 2-(1,2-Epoxy-1,5-dimethyl-4-hexenyl)-3-methoxy-1-methylthiomethyl-1,4-cyclohexanediol] were, in that order, 4/7 and “± (that of less than 70% but exceeding 40%)”.
The like results for `CO[C@@H]1[C@H](O)CC[C@](O)(C[N+]2([O-])CCCC2)[C@H]1[C@@]1(C)O[C@@H]1CC=C(C)C` [Example 48, 2-(1,2-Epoxy-1,5-dimethyl-4-hexenyl)-3-methoxy-1-(pyrrolidin-1-yl)methyl-1,4-cyclohexanediol N-oxide] were, in that order, 4/7 and “± (that of less than 70% but exceeding 40%)”.
The like results for `CO[C@@H]1[C@H](OC(N)=O)CC[C@](O)(C[S+](C)C)[C@H]1[C@@]1(C)O[C@@H]1CC=C(C)C` [Example 70, 4-Carbamoyloxy-2-(1,2-epoxy-1,5-dimethyl-4-hexenyl)-3-methoxy-1-dimethylsulfoniomethyl-cyclohexanol iodide] were, in that order, 5/6 and “+ (an inhibition rate of 70% or more)”.
With `CO[C@@H]1[C@H](OC(=O)NC(=O)CSc2nc3ccccc3s2)CC[C@](O)(CCl)[C@H]1[C@@]1(C)O[C@@H]1CC=C(C)C` [Example 91], the “Inhibitory Rate (rats whose angiogenesis due to bFGF was retarded or weakened / rats subjected to the test)” value was 6/6 and the “Judgment (Angiogenesis Inhibitory Activity)” value is “+ (an inhibition rate of 70% or more)”.
